Laboratory results: publication PMC11566907, “Accelerated hit identification with target evaluation, deep learning and automated labs: prospective validation in IRAK1” (Journal of Cheminformatics, 2024)
pIC50: −log10 of the molar value. Like-named read-outs stand apart in the source and are kept apart here.

Tests used:
IRAK1 [1] = molecular target: T1, IRAK1 (Homo sapiens, UniProt P51617); assay: LanthaScreen Eu Kinase Binding Assay for IRAK1, hit dose-response assay (DRC); details: for pIC50: read-out: DRC result, IC50; for IC50: read-out: DRC result, pIC50 (converted); for DRC result, activity class: class by pIC50 value
T1 construct: purchased BPS Bioscience Inc. 40202
Source text: The experimental method of LanthaScreen^TM Eu Kinase Binding Assay for IRAK1 was developed based on the Invitrogen^TM IRAK1-GST LanthaScreen^TM binding assay. Purified recombinant IRAK1-His (cat. # 40202) was purchased from BPS Bioscience Inc. (San Diego, CA, USA). Kinase tracer 236 (cat. # PR9078A) was purchased from Thermo Fisher Scientific Inc. (Waltham, MA, USA). Eu-W1024-anti-6xHis antibody (cat. #AD0400) and 384-well white ProxiPlates^TM (cat. # 6008289) were purchased from Perkin Elmer, Inc. (Waltham, MA, USA). Echo-qualified 384 well COC low dead volume source microplates (cat. #001-16128) and Echo-qualified 384 well polypropylene microplates (cat. #001-14615) were purchased from Beckman Coulter Inc.(Indianapolis, IN, USA). The assay was carried out in an enclosed workcell with subdued lighting. All reagents were prepared in the assay buffer (50 mM HEPES, 10 mM MgCl 2 , 1 mM EGTA, 0.01% Brij-35, 1 mM DTT) and kept on ice. These included 2 x tracer 236 (0.2 μ M), 2 x IRAK1 /antibody solution (20 nM IRAK1-His, 4 nM Eu-W1024-anti-6xHis antibody) and 2 x antibody solution (4 nM Eu-W1024-anti-6xHis antibody). Five microliters of 2 x tracer 236 was dispensed into a 384-well white ProxiPlate^TM, followed by either 5 μ l of 2 x IRAK1/antibody solution or 5 μ l of 2 x antibody solution on a Tempest® dispenser (Formulatrix, Inc., Bedford, MA, USA). The plate was sealed on a Wasp plate sealer (KBiosciences Limited, Basildon, Essex, UK) and centrifuged at 1000 x g for 15 s on a HiG^TM automated centrifuge (BioNex Solutions Inc., San Jose, CA, USA) and incubated at room temperature for 30 min. The plate was then peeled and read on a PHERAstar® FSX (BMG LABTECH Inc., Cary, NC, USA) with a LanthaScreen^TM module at 340/615, 665 nm. The TR-FRET ratio (acceptor emission/donor emission x 10,000) was used as the readout.
A dose-response assay was conducted for each of the compound in the diversified set of 283 hits. Each compound was assayed in an 8-point curve with approximately 4-fold dilutions (subject to Echo dispense volume limits), starting at 30 μ M, and the assays were run in triplicates. The exact concentrations are 30, 7.5, 1.875, 0.469, 0.117, 0.029, 0.007, 0.002 μM . In each plate, three replicates of a staurosporine titration curve starting at 3 μ M were assayed in parallel as a reference.
The IC 50 of each dose-response curve was derived by fitting a four-parameter logistic (4PL) model, shown in Eq. 3, where the respective variables are defined as follows: • A : Minimum asymptote. Response value when x approaches infinity. • D : Maximum asymptote. Response value when x is very small or close to zero. • B : Slope factor (Hill’s slope). Steepness of the curve. • C : Inflection point. The concentration of the analyte that gives half-maximal response. 3 f(x)=A+D-A/1+x/C^B The 4PL model was fitted for each compound with data points for all three replicates all at once. As an additional quality control, 4PL regression models for all sub-micromolar compounds were manually inspected. Computed IC 50 were capped within the range of measured concentrations. In seven cases, where curve fits were erroneous and produced IC 50 values above assay sensitivity range, IC 50 values were reduced to the highest concentration used in the assay (30 μ M).

IRAK1 [2] = molecular target: T1, IRAK1; details: read-out: affinity; cited from earlier work
[3] = 8-point curve from 30 μM, triplicates, 4PL fit

T1 sequence (P51617 whole entry): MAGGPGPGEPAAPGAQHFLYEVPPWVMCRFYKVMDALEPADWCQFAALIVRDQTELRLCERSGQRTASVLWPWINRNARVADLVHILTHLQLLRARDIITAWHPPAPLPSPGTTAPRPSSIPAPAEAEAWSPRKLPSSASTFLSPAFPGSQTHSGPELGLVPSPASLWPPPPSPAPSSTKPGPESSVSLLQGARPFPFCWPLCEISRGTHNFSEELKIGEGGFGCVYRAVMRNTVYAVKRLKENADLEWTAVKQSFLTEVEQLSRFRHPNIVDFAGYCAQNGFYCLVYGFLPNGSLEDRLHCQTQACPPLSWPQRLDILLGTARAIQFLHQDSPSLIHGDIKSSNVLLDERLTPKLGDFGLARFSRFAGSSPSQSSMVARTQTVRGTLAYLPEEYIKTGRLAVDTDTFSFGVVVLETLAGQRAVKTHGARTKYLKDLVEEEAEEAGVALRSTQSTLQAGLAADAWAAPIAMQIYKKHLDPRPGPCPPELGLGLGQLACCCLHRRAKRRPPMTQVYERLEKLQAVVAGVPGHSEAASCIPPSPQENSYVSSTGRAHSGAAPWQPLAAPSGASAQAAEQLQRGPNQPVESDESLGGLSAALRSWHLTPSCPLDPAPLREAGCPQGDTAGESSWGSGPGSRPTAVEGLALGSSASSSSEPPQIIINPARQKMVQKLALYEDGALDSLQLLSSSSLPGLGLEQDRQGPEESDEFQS

Row | SMILES | pIC50 (IRAK1 [1]; [3]) | IC50 (IRAK1 [1]; [3]) [µM] | DRC result, activity class (IRAK1 [1]) | DRC result, pIC50 (IRAK1 [1]; [3]) | pIC50 (IRAK1 [2])
1 | CNc1cc2c(cn1)cc(-c1ccc(F)c(NC(=O)Nc3cc(C(C)(C)C)nn3C)c1)c(=O)n2C(C)C [A1] | 7.05 | 0.0912 | nanomolar | – | –
2 | CCN1CCN(Cc2ccc(Nc3ncc(F)c(-c4cc(F)c5nc(C)n(C6CC6)c5c4)n3)nc2)CC1 [B2] | 7.22 | 0.0631 | nanomolar | – | –
3 | CC(C)(C)c1cc(NC(=O)NCc2ccc(-c3cnc4cc(-c5ccncc5)ccn34)cc2)n[nH]1 [C1] | 7.00 | – | nanomolar | 7.00 | –
4 | C=CC(=O)Nc1cccc(C(=O)Nc2ccc(NC(=O)c3cccc(-c4ccn[nH]4)n3)cc2)c1 [JH-X-119-01] | – | – | – | – | 8.05

Continued by rising pIC50 (IRAK1 [1]; [3]), values first:

Row | pIC50 (IRAK1 [1]; [3]) | IC50 (IRAK1 [1]; [3]) [µM] | DRC result, activity class (IRAK1 [1]) | DRC result, pIC50 (IRAK1 [1]; [3]) | SMILES | pIC50 (IRAK1 [2])
5 | 7.30 | 0.0525 | nanomolar | – | CC(C)Cc1ccnc(NC(=O)Cc2ccc(-c3cnc4cc(-c5ccncc5)ccn34)cc2F)c1 [C2] | –
6 | 7.70 | 0.0191 | nanomolar | – | Cc1nc(Nc2ncc(F)c(-c3cc(F)c4nc(C)n(C(C)C)c4c3)n2)ccc1N1CCN(C(C)C)CC1 [B1] | –
